Measured values taken from patent US10179164B2, “Method for inducing an immune response for treatment of cancer and autoimmune diseases or conditions” (priority 2011, dated 2019).

Tests used:
[1] = system: C57BL/6 bone marrow cells (monocyte population); experiment: Flow cytometry of CD11c and CD86 expression on peptide-treated bone marrow cells; format: cell-based, mouse (C57BL/6); conditions: BM monocyte population by light scatter, second day after treatment; for CD11c expression: PE-anti-CD11c, versus untreated; for CD86 expression: PE-anti-CD86, versus untreated
Procedure: Bone marrow (BM) cells were prepared. Briefly, the femurs and tibias were obtained from five C57BL/6 female mice, and the ends were removed to expose the hollow bone packed with marrow. BM cells were flushed from the bones with cold Hanks Balanced Salt Solution (HBSS) using a sterile disposable 22 g needle and pooled. Red blood cells (RBCs) were lysed using Tris-buffered ammonium chloride and resultant cells were washed 3 times in HBSS, BM cells were suspended in tissue culture medium (TCM) (RPMI 1640 with glutaminic plus […] PenStrep, 50 μM 2-mercaptoethanol, and 5% fetal calf serum) at approximately 5×10^6 cells/ml and incubated for 1 hour at 37° C. in a 5% CO2 atmosphere in plastic tissue culture flasks to remove adherent, mature macrophages. Decanted non-adherent cells were resuspended in TCM and 1.5×10^6 BM cells in 1 ml were placed into each well of a 24 well tissue culture plate (Falcon) and either left untreated or treated with […] of peptide J or JgD LEAPS™ heteroconjugate. After incubation for 48 hrs at 37° C., cells were viewed and photographed for changes in morphology, tissue culture supernatants were removed and the cells were prepared for flow cytometric analysis.
For analysis of CD11c and CD86 expression, untreated and peptide treated BM cells, prepared and treated as described above, were labeled with PE-anti-Cd11c or PE-anti CD86 (Beckman Coulter Fullerton, Calif.) At least […] were analyzed (Altra FACS, Beckman Coulter) using forward and side scatter parameters to limit (gating) the immunofluorescence analysis to cells of the size and granularity of monocytes and dendritic cells.
The monocyte population of BM cells, as defined by light scatter parameters, was analyzed on the second day after treatment with J, gD, JgD or JH.

[2] = system: IL-12p70; experiment: Intracellular IL-12p70 flow cytometry of CD3- bone marrow cells; format: cell-based, mouse (C57BL/6); conditions: CD3- BM cells, PE-anti-IL-12p70
From the text: CD3+ cells were removed from BM cells using the fluorescence activated cell sorter and then untreated or treated with JgD, gD or JH. Flow cytometric analysis of the sorted population confirmed the removal of CD3 positive cells. The CD3− BM cells were labeled with FIT C-anti-CD8 (Beckman Coulter (clone 53-6.7)), fixed with paraformaldehyde, permeabilized with saponin (Intraprep, Immunotech), labeled with PE-anti-IL-12p70 (Beckman Coulter) and then post fixed with paraformaldehyde prior to immunofluorescence analysis.

[3] = system: collagen induced arthritis (CIA) model in DBA/IJ mice; experiment: Collagen induced arthritis (CIA) model, Arthritis Index; format: in vivo
Procedure: The following study is of CEL-2000 therapeutic vaccine for collagen induced arthritis (CIA) where the first step was to identify a good animal model for testing the vaccine, which is the collagen induced arthritis (CIA) model in young (6-7) week old male DBA/IJ mice. These mice received 2 injections of bovine collagen the first in complete Freund's adjuvant (CFA) on day 0 and then 3 weeks later on day 21, in Incomplete CFA. After the second collagen injection, the mice were evaluated daily for any joint swelling or redness. Each of the paws was scored on a 4 point scale (Arthritis Index (AI) with respect to the number of digits with symptoms and the thickness of the paw measured, at least 3-4 times a week. Each mouse was weighed weekly.
When significant disease is noted, usually about day 28, the mice are grouped (n=8) with a range of scores between 1 and 6 and group mean of 2.5 to 3. At this point the therapy begins according to protocol. Controls include groups with induced disease but no therapy and groups of healthy mice without induced disease. A therapy control of Enbrel® (3 mg/kg, every other day) was included. Over the 28-day course of study, the outcomes of different CEL-2000 and CEL-2003 treatment schedules were compared with Enbrel. In this study, CEL-200 treatment with 2 doses of 33 or 100 nmol were given subcutaneously on days 0 and 7 or on days 0 and 14. CEL-2003 was used at one dose of […] on days 0 and 14. […] The AI score for each paw (4 paws total) were added for each group and reported on FIG. 4.

Row | Sequence | CD11c expression [1] | CD86 expression [1] | IL-12p70 expressing cells [2] | progression of arthritis disease (AI score) ([3]; 100 nmol dose (3x treatment) subcutaneously on days 0 and 7, 28-day study) | progression of arthritis disease compared with Enbrel ([3]; 2 doses of 33 or 100 nmol s.c. on days 0 and 7 or 0 and 14 (most regimes), Enbrel 3 mg/kg every other day for 28 days) | Student t test comparison of treatment groups with Enbrel ([3]; days 7, 14 and 21, 3x dose days 0 and 14, 3x days 0 and 7, 1x days 0 and 7 or 0 and 14)
1 | DLLKNGERIEKVE (listed as Homo sapiens) [J-ICBL, ICBL derived from amino acids 38-50 of the β-2-microglobulin chain of the MHC 1 molecule] | no discernible change | no discernible change | no significant increase | – | – | –
2 | DLLKNGERIEKVEGGGSLKMADPNRFRGKDLP [JgD] | expressed | expressed | – | – | – | –
3 | DLLKNGERIEKVEGGGTGGKPGIAGFKGEQGPKGEP (Heteroconjugate construct) [CEL-2000, Peptide J linked to the human type II collagen peptide 254-273 through a triglycine linker] | – | – | – | appeared to limit the progression of disease throughout the experimental period | at least as good as those of mice treated with Enbrel® | slightly better than Embrel
4 | SLKMADPNRFRGKDLP [gD] | no discernible change | no discernible change | – | – | – | –
